Assay results taken from publication PMC3816736 (Biochemical pharmacology, 2013).

Tests used:
[1] = target: T1, xanthine oxidase (XO) (Bos taurus, UniProt P80457); assay: spectrophotometric uric acid formation at […] nm, […] compound; assay type: biochemical
[2] = target: T1, xanthine oxidase (XO); assay: spectrophotometric uric acid formation at […] nm; assay type: biochemical

T1 sequence (P80457 2-1332): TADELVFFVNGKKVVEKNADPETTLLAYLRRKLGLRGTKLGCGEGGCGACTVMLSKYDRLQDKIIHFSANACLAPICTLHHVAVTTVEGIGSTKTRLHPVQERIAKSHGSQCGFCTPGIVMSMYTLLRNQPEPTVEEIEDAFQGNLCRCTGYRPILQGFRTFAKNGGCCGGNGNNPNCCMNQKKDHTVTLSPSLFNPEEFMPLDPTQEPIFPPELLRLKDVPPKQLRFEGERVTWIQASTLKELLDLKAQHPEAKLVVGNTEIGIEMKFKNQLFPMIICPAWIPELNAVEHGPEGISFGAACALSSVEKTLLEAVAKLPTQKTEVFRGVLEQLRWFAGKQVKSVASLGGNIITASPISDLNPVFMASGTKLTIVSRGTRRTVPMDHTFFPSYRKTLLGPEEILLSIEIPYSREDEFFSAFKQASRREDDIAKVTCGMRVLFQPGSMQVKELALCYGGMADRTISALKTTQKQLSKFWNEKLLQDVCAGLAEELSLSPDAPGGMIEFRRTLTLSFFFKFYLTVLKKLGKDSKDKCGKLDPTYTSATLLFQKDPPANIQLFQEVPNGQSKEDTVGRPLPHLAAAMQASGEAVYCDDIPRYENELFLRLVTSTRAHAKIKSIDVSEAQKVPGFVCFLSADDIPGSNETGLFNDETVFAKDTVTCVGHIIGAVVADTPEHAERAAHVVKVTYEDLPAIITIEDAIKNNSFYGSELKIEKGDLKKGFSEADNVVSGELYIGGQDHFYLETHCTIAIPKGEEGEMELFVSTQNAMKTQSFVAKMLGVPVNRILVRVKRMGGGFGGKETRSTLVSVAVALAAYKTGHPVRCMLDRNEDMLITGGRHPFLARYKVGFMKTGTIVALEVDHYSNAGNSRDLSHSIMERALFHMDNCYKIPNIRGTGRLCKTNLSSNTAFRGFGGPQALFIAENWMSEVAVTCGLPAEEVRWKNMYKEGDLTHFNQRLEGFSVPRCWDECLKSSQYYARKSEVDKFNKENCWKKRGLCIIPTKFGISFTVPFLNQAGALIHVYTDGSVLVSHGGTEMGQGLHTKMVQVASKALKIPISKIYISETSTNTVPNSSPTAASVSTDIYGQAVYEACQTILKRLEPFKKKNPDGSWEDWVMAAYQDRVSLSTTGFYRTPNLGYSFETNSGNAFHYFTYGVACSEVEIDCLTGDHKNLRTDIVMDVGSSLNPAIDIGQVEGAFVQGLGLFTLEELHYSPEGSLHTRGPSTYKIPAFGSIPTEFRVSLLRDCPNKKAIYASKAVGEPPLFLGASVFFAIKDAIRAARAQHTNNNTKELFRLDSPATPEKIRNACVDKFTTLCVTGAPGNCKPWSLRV

IC50 [2] [µM] | SMILES | spectrophotometric uric acid formation at 295 nm, 20 μM compound [1]
– | O=Cc1ccc(O)c(O)c1 [DHB-CHO, 3,4-dihydroxybenzaldehyde] | −CHO group such as DHNB, DH6NB, DHB-CHO and THB-CHO had an inhibitory effect on XO
76 | OCc1ccc(O)c(O)c1 [DHBA, 3,4-dihydroxybenzyl alcohol] | –
> 80 | O=Cc1cc(O)c(O)c(O)c1 [THB-CHO, 3,4,5-trihydroxybenzaldehyde] | –
